Reference: the NIST ThermoML archive (doi:10.1016/j.fluid.2017.04.016)
± gives the expanded uncertainty stated by the source.

Experiment: mean ionic activity coefficient (dimensionless); mn = molality of the nth substance listed, in mol/kg
Details: 101 kPa, Liquid, galvanic cell

[Br-].[Na+] [sodium bromide] + O
mean ionic activity coefficient
Details | 298.2 K | 310.2 K
m1 = 0.01 | 0.875 ± 0.039 | –
m1 = 0.0508 | 0.835 ± 0.039 | 0.714 ± 0.039
m1 = 0.1 | – | 0.631 ± 0.039
m1 = 0.1009 | 0.777 ± 0.039 | –
m1 = 0.25 | – | 0.669 ± 0.039
m1 = 0.2509 | 0.799 ± 0.039 | –
m1 = 0.5004 | 0.699 ± 0.039 | –
m1 = 0.5731 | – | 0.579 ± 0.039
m1 = 0.75 | 0.637 ± 0.039 | –
m1 = 0.7503 | – | 0.559 ± 0.039
m1 = 1 | 0.612 ± 0.039 | 0.547 ± 0.039
m1 = 1.25 | 0.587 ± 0.039 | 0.553 ± 0.039
m1 = 1.5 | 0.57 ± 0.039 | 0.576 ± 0.039
m1 = 1.75 | 0.575 ± 0.039 | 0.61 ± 0.039
m1 = 2 | 0.642 ± 0.039 | 0.635 ± 0.039
m1 = 2.25 | 0.633 ± 0.039 | 0.643 ± 0.039
m1 = 2.5 | 0.644 ± 0.039 | 0.646 ± 0.039
m1 = 2.75 | 0.584 ± 0.039 | 0.711 ± 0.039
m1 = 3 | 0.616 ± 0.039 | 0.846 ± 0.039
